Measured values published in patent publication US20040171566A1, “Antisense modulation of p38 mitogen activated protein kinase expression” (priority 1999, published 2004).
e = 2'-O-(2-methoxyethyl) (MOE); d = 2'-deoxy (DNA)

What was measured:
mouse p38α mRNA = assay: Mouse p38α mRNA levels in bEND.3 cells, quantitative real-time PCR; format: cell-based; set-up: % Inhib. mouse p38α: concentration or dose not given beside the values; conditions: bEND.3 cells, mRNA by quantitative real-time PCR, average of two experiments
Source text: (§1) Quantitation of p38α mRNA levels was accomplished by real-time quantitative PCR using the ABI PRISM™ 7600, 7700, or 7900 Sequence Detection System (PE-Applied Biosystems, Foster City, Calif.) according to manufacturer's instructions. This is a closed-tube, non-gel-based, fluorescence detection system which allows high-throughput quantitation of polymerase chain reaction (PCR) products in real-time. As opposed to standard PCR in which amplification products are quantitated after the PCR is completed, products in real-time quantitative PCR are quantitated as they accumulate. This is accomplished by including in the PCR reaction an oligonucleotide probe that anneals specifically between the forward and reverse PCR primers, and contains two fluorescent dyes. A reporter dye (e.g., FAM or JOE, obtained from either PE-Applied Biosystems, Foster City, Calif., Operon Technologies Inc., Alameda, Calif. or Integrated DNA Technologies Inc., Coralville, Iowa) is attached to the 5′ end of the probe and a quencher dye (e.g., TAMRA, obtained from either PE-Applied Biosystems, Foster City, Calif., Operon Technologies Inc., Alameda, Calif. or Integrated DNA Technologies Inc., Coralville, Iowa) is attached to the 3′ end of the probe. When the probe and dyes are intact, reporter dye emission is quenched by the proximity of the 3′ quencher dye. During amplification, annealing of the probe to the target sequence creates a substrate that can be cleaved by the 5′-exonuclease activity of Taq polymerase. […] With each cycle, additional reporter dye molecules are cleaved from their respective probes, and the fluorescence intensity is monitored at regular intervals by laser optics built into the ABI PRISM™ Sequence Detection System. In each assay, a series of parallel reactions containing serial dilutions of mRNA from untreated control samples generates a standard curve that is used to quantitate the percent inhibition after antisense oligonucleotide treatment of test samples.
(§2) Prior to quantitative PCR analysis, primer-probe sets specific to the target gene being measured are evaluated for their ability to be “multiplexed” with a GAPDH amplification reaction. In multiplexing, both the target gene and the internal standard gene GAPDH are amplified concurrently in a single sample. In this analysis, mRNA isolated from untreated cells is serially diluted. Each dilution is amplified in the presence of primer-probe sets specific for GAPDH only, target gene only (“single-plexing”), or both (multiplexing). Following PCR amplification, standard curves of GAPDH and target mRNA signal as a function of dilution are generated from both the single-plexed and multiplexed samples. If both the slope and correlation coefficient of the GAPDH and target signals generated from the multiplexed samples fall within 10% of their corresponding values generated from the single-plexed samples, the primer-probe set specific for that target is deemed multiplexable. Other methods of PCR are also known in the art.
(§3) PCR reagents were obtained from Invitrogen Corporation, (Carlsbad, Calif.). […] The RT reaction was carried out by incubation for 30 minutes at 48° C. Following a 10 minute incubation at 95° C. to activate the PLATINUM® Taq, 40 cycles of a two-step PCR protocol were carried out: 95° C. for 15 seconds (denaturation) followed by 60° C. for 1.5 minutes (annealing/extension).
(§4) Gene target quantities obtained by real time RT-PCR are normalized using either the expression level of GAPDH, a gene whose expression is constant, or by quantifying total RNA using RiboGreen™ (Molecular Probes, Inc. Eugene, Oreg.). GAPDH expression is quantified by real time RT-PCR, by being run simultaneously with the target, multiplexing, or separately. Total RNA is quantified using RiboGreen™ RNA quantification reagent (Molecular Probes, Inc. Eugene, Oreg.). Methods of RNA quantification by RiboGreen™ are taught in Jones, L. J., et al, (Analytical Biochemistry, 1998, 265, 368-374). […]

rat p38α mRNA = assay: Rat p38α mRNA levels in NR-8383 cells, quantitative real-time PCR; format: cell-based; conditions: 300 nM oligonucleotide with FuGENE 6, 24 hours, mRNA by quantitative real-time PCR, average of two experiments
Source text: as §1, §2, §3, §4

Substance	% Inhib. mouse p38α (mouse p38α mRNA)	% Inhib. rat p38α (rat p38α mRNA)
320156 (antisense GGAATTGGCTTTACACTTTC; sugars from the 5' end e5 d10 e5, all phosphorothioate, methylation of C not given here) [compound 320156]	91%	64%
320157 (antisense CGTCCAACACTGGAATTGGC; sugars from the 5' end e5 d10 e5, all phosphorothioate, methylation of C not given here) [compound 320157]	96%	71%
320158 (antisense CCTTCTGGGCTCCAAATGAT; sugars from the 5' end e5 d10 e5, all phosphorothioate, methylation of C not given here) [compound 320158]	91%	71%
320159 (antisense TCTGACATCCTATGGCATAC; sugars from the 5' end e5 d10 e5, all phosphorothioate, methylation of C not given here) [compound 320159]	94%	69%
320160 (antisense GTTAATATGGTCTGTACCAG; sugars from the 5' end e5 d10 e5, all phosphorothioate, methylation of C not given here) [compound 320160]	53%	43%
320161 (antisense GCTGAAGCTGGTTAATATGG; sugars from the 5' end e5 d10 e5, all phosphorothioate, methylation of C not given here) [compound 320161]	80%	66%
320162 (antisense CGCATTATCTGCTGAAGCTG; sugars from the 5' end e5 d10 e5, all phosphorothioate, methylation of C not given here) [compound 320162]	92%	62%
320163 (antisense TGTTAATGAGATAAGCAGGG; sugars from the 5' end e5 d10 e5, all phosphorothioate, methylation of C not given here) [compound 320163]	0%	40%
320164 (antisense CTTGGCATCCTGTTAATGAG; sugars from the 5' end e5 d10 e5, all phosphorothioate, methylation of C not given here) [compound 320164]	80%	73%
320165 (antisense TGCCTCATGGCTTGGCATCC; sugars from the 5' end e5 d10 e5, all phosphorothioate, methylation of C not given here) [compound 320165]	81%	53%
320166 (antisense ACTGAATGTAGTTTCTTGCC; sugars from the 5' end e5 d10 e5, all phosphorothioate, methylation of C not given here) [compound 320166]	53%	35%
320167 (antisense CTTGCCTGTAAAAACACAGA; sugars from the 5' end e5 d10 e5, all phosphorothioate, methylation of C not given here) [compound 320167]	7%	11%
320168 (antisense TCACCTCATGGCTTGGCATC; sugars from the 5' end e5 d10 e5, all phosphorothioate, methylation of C not given here) [compound 320168]	83%	56%
320169 (antisense TTTGTTCTCACCTCATGGCT; sugars from the 5' end e5 d10 e5, all phosphorothioate, methylation of C not given here) [compound 320169]	92%	64%
